The source of these data is publication PMC7179685, “Iminosugars With Endoplasmic Reticulum α-Glucosidase Inhibitor Activity Inhibit ZIKV Replication and Reverse Cytopathogenicity in vitro” (Frontiers in Microbiology, 2020).

One series has as its system CHME3 cells. Nature of the series: Measurement of necrosis, LDH assay in ZIKV-infected CHME3 cells. It counts as cell-based, Human. As to conditions: PRVABC59, MOI 1, 72 hpi. How it is done:
Cell necrosis was evaluated by measuring the levels of lactate dehydrogenase (LDH) in cells using the CytoTox 96 Non-Radioactive Cytotoxicity Assay (Promega) following the manufacturer’s instructions. LDH is a soluble stable cytosolic enzyme present in many cell types which is rapidly released into the cell culture medium following disruption of the plasma membrane. LDH is a widely used marker to measure cellular cytotoxicity and necrosis. CHME3 cells in 96-well cell culture plates were pre-treated with celgosivir for 2 h and then infected with PRVABC59 at MOI 1 in the presence of celgosivir at concentrations ranging from 0.01 to 1000 μM or vehicle. Controls for media color, cells, and virus were included. At 48 and 72 hpi, 50 μl of supernatant from each well was transferred into a new 96-well plate, and 50 μl of CytoTox 96® Reagent was added to each well. After incubating at room temperature in the dark, 50 μl of Stop Solution was added to each well, and the optical density was measured at 490 nm using an ELx800 microplate reader (BioTek).

Another series concerns MBDK cells. On the set-up: method as in Whitby et al., 2004; Sung et al., 2016. As to conditions: ref Whitby et al., 2004, Sung et al., 2016; cited from earlier work.
The subject of series [1] is MDA5, RIG-I, MX1, IRF7, IFNβ, ISG15. In words: Antiviral gene expression by qRT-PCR in CHME3 cells. It counts as cell-based, Human. The conditions noted are these: 1 μM. How it is done:
CHME3 cells grown in 6-well plates and at 70% confluency were infected with PRVABC59 at MOI 1. After pre-incubation with the virus for 2 h, medium from cells was removed, cells were washed with PBS, and fresh infection medium containing 1 μM celgosivir was added. Negative control wells were added with infection medium without celgosivir. Three wells were used for each treatment. At 24, 48, and 72 h, total RNA was extracted from cells using the RNeasy Plus Minikit (Qiagen, Hilden, Germany) according to the manufacturer’s protocol. Complementary DNA was synthesized from 1 μg of total RNA using 4 μl of qScript cDNA SuperMix (5x) (QuantaBio, Beverly, MA, United States). qRT-PCR was performed on a 7500 Fast Real-Time PCR System (Applied Biosystems) using PowerSybr Green PCR MasterMix (Applied Biosystems) according to the manufacturer’s instructions. Expression of retinoic acid-inducible gene 1 (RIGI), melanoma differentiation-associated protein 5 (MDA5), interferon regulatory factor 7 (IRF7), interferon β (IFNβ), interferon-induced GTP-binding protein (MX1) and interferon-stimulated gene 15 (ISG15) were quantified, and hypoxanthine phosphoribosyltransferase 1 (HPRT1) was used as a house-keeping gene for data normalization. All primers used were previously published and were supplied by IDT ([Megiorni et al., 2005]; [Kim et al., 2008]; [Nasirudeen et al., 2011]; [Muramatsu et al., 2014]; [Seng et al., 2014]; [Liu et al., 2015]; [Livingstone et al., 2015]).

The next series concerns ZIKV strain PRVABC59. Nature of the series: Antiviral screening assay (MTS cell viability after infection) in CHME3 cells. It counts as cell-based, Zika virus. How it is done: A cell viability assay was used to evaluate both the cytotoxicity and antiviral abilities of the iminosugars with appropriate controls as previously described ([Fletcher et al., 2000]) using the CellTiter 96® AQueous One Solution Cell Proliferation Assay (MTS, Promega, Madison, WI, United States) following the manufacturer’s instructions. At 60–70% confluence, Vero cells and CHME3 cells were pretreated with iminosugars for 2 h and then infected with ZIKV according to the plate layout shown in Supplementary Figure S1. Four biological replicates were used to assess cytotoxicity, and six replicates were used to assess the antiviral ability of each iminosugar with concentrations ranging from 0.01 to 1000 μM or vehicle (sterile nuclease-free water). Cells treated with iminosugars or vehicle control were infected with ZIKV strain PRVABC59, IBH30656 or MEX 2-81 at a multiplicity of infection (MOI) of 1 in infection medium consisting of DMEM supplemented with 5% FBS and 1% antibiotic/antimycotic solution. The CHME3 infection medium was additionally supplemented with 0.1% non-essential amino acids (NEAA). At 72 h post-infection (hpi), MTS solution was added to the wells, and after 2 h, the optical density was measured at 490 nm using a microplate reader (ELx800; BioTek, Winooski, VT, United States). Previous studies have shown that ER α-glucosidase inhibitor, Celgosivir prevents DENV secretion in primary human macrophages with an EC50 of 5 μM and has CC50 greater than 1000 μM in MBDK cells ([Whitby et al., 2004]; [Sung et al., 2016]).

Another series has as its system ZIKV PRVABC59. In words: Virus yield reduction assay (qRT-PCR and TCID50) in CHME3 cells. The format is cell-based, Zika virus. As to conditions: 1 μM, 48 hpi. The procedure:
Zika virus yield reduction following treatment with iminosugars was assessed by measuring the NS1 gene by a previously described quantitative reverse transcription-polymerase chain reaction (qRT-PCR) and infectious virus titration in Vero cells ([Reed and Muench, 1938]; [Goebel et al., 2016]). Vero and CHME3 cells pre-treated 1 μM of castanospermine, celgosivir or DNJ for 2 h and then were infected with PRVABC59 either at MOI 0.5 or 5 in infection medium. After 2 h of incubation with the virus, medium from cells was removed, cells were washed with phosphate buffered saline, and fresh infection medium containing 1 μM of castanospermine, celgosivir or DNJ was added to the wells. At 48 and 72 hpi, culture supernatants were harvested and stored at −80°C until use for viral RNA extraction. Viral RNA was extracted from 50 μl of sample using the MagMAX-96 Viral RNA Isolation Kit (Applied Biosystems, Foster City, CA, United States) on a MagMAX Express-96 Deep Well Magnetic Particle Processor (Applied Biosystems). The amount of ZIKV genomic RNA was measured by qRT-PCR using SuperScript® III Platinum One-Step qRT-PCR Kit on a 7500 Fast Real-Time PCR System (Applied Biosystems). The primers (F: 5′-[…]-3′, R: 5′-[…]-3′) and probe sequence (5′- FAM-TGCCCAACA/ZEN/CAAGGTGAAGCC TACCT-BHQ) were purchased from Integrated DNA Technologies (IDT; Coralville, IA, United States), and the qRT-PCR cycling conditions included an initial cDNA synthesis for 30 min at 50°C, followed by 2 min at 95°C and 45 cycles of 2-step cycling at 95°C for 15 s, then 55°C for 30 s ([Goebel et al., 2016]). The ZIKV copy numbers were quantified using a standard curve generated with serial dilutions of positive control ZIKV RNA standards derived from ZIKV with known TCID50 value. Cell culture supernatants were titrated for the infectious virus in Vero cells, and titer was expressed as TCID50 calculated using the Reed-Muench method ([Reed and Muench, 1938]).
(In general: Real-time PCR tracks product formation cycle by cycle.)

As to `CCCC(=O)O[C@H]1CN2CC[C@H](O)[C@@H]2[C@@H](O)[C@@H]1O` [celgosivir, 6-O-butanoyl castanospermine], the “ZIKV-induced LDH activity (necrosis)” value with CHME3 cells is “reduced PRVABC59 ZIKV-induced LDH activity to levels equivalent to mock-infected cells”. Moreover, the CC50 – broadly, the concentration at which the toxic effect on the cells reaches its halfway point – in the series with MBDK cells was > 1 mM. Moreover, the “decrease of IFNβ expression levels” value in series [1] (PRVABC59 ZIKV-infected CHME3 cells, treated vs not treated, 48 hpi, p = 0.033) worked out at 27%. In series [1] (PRVABC59 ZIKV-infected CHME3 cells, any timepoint (24, 48, 72 h)), the “expression levels of MDA5, RIG-I, MX1, IRF7, and ISG15, treated vs vehicle-treated” value is on record as “not significantly different”. Besides, the “decrease of IFNβ gene expression” value in series [1] (mock-infected CHME3 cells, treated vs untreated, 48 hpi, statistically significant) is on record as 22%. Moreover, the “level of IFNβ expression, treated vs untreated” value in series [1] (mock-infected CHME3 cells, 72 hpi) is on record as “similar”. In addition, the “ZIKV-induced cell death (MTS)” value in the series on ZIKV strain PRVABC59 (CHME3 cells, PRVABC59, MOI 1, 72 hpi) is listed as “reduce ZIKV-induced cell death”. The viability (as a rule, the share of living cells, or the viability signal relative to a control) at 0.01 µM in the series on ZIKV strain PRVABC59 (Zika virus, read-out: cell viability following ZIKV infection) was > 90%. Further, the “infectious PRVABC59 ZIKV titers (TCID50)” value is given as “statistically significant reduction” in the series with ZIKV PRVABC59 (MOI 0.5) and “statistically significant reduction” with ZIKV PRVABC59 (MOI 5, p ≤ 0.0433).
